Format in all cases: functional
For one assay, the system named is MCF7. Description: Growth inhibition of human MCF7 cells at 10^-5 M incubated for 48 hrs by sulforhodamine B assay relative to control. The following applies: MCF7, 48 h, read-out: GI. A general note: In SRB staining, fixed cells bind dye roughly in proportion to their protein.
A further assay concerns T47D. Description: Growth inhibition of human T47D cells at 10^-5 M incubated for 48 hrs by sulforhodamine B assay relative to control. As to conditions: read-out: GI.
The subject of a further assay is MDA-MB-468. Description: Growth inhibition of human MDA-MB-468 cells at 10^-5 M incubated for 48 hrs by sulforhodamine B assay relative to control. The following applies: MDA-MB-468, 48 h, read-out: GI.

Turning to `O=C1/C(=C\c2cccn2Cc2ccccc2)c2ccccc2N1c1c(Cl)cccc1Cl`, the figures for the inhibition of growth at 10 µM in the assay with MCF7, in the assay with T47D and with MDA-MB-468 were 93%, 100% and 100%, respectively.

These data come from ChEMBL document CHEMBL4308864, “Targeting tyrosine kinase: Development of acridone - pyrrole - oxindole hybrids against human breast cancer” (2019).
